Data as given in patent US11655216B2 (priority 2016, dated 2023).
Read-outs that look alike come from different tables or passages of the source.

Key:
[1] = biological target: T1, glutathione-S-transferase (GST) tagged LXRalpha LBD (ligand binding domain) (Homo sapiens, UniProt Q13133); assay: biochemical; details: for EC50 / LXR alpha IP: potency (Inflection Point), compound-induced co-activator recruitment, TR-FRET
T1 construct: purchased Invitrogen pv4655
T1 sequence (Q13133 209-447 limits assumed): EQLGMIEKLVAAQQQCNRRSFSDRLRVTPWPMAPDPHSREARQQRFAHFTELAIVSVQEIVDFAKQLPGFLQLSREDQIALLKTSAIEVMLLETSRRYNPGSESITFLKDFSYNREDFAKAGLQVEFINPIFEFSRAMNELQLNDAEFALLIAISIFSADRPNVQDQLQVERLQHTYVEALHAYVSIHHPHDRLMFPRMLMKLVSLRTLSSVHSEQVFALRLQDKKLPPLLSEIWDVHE
Procedure, shortened: (§1)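 Test ligands were combined with the receptor LBD, after which terbium-labelled anti-GST antibody and a fluorescein-tagged coactivator peptide were introduced together. Plates sat at room temperature, then time-resolved FRET was measured.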

[2] = biological target: T2, glutathione-S-transferase (GST) tagged LXRbeta LBD (ligand binding domain) (Homo sapiens, UniProt P55055); assay: LanthaScreen TR-FRET Liver X Receptor Coactivator Assay, LXR beta; assay type: biochemical; details: for EC50: LXR beta IP, potency (Inflection Point), compound-induced co-activator recruitment, TR-FRET; for Emax: read-out: LXR beta actiivty at max dose, efficacy (% Emax) in relation to reference dual agonist T0901317
T2 construct: purchased Invitrogen pv4658
T2 sequence (P55055 222-460 limits assumed): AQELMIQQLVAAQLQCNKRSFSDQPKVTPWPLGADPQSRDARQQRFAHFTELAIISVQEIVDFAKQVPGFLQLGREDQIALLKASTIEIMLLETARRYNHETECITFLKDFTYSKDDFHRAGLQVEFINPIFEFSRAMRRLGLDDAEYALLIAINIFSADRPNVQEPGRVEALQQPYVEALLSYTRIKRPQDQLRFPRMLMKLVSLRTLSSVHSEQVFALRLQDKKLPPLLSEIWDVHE
Procedure, shortened: as §1

[3] = efficacy (% Emax) in relation to reference dual agonist T0901317, read-out: LXR alpha actiivty at max dose
[4] = read-out: LXR alpha actiivty at max dose, efficacy (% Emax) in relation to reference dual agonist T0901317

| SMILES | Emax [1, 3] | EC50 ([1]; read-out: LXR alpha IP) | EC50 [2] | Emax [2] | LXR alpha IP [1] | Emax [1, 4] | EC50 ([1]; LXR alpha IP) |
| --- | --- | --- | --- | --- | --- | --- | --- |
| CN(C)C(=O)c1ccc(OCCCCC2CCN(C(=O)C(O)(c3ccccn3)C(F)(F)F)CC2)nc1Cl (stereo not drawn) [Example 6-1, 2-chloro-N,N-dimethyl-6-(4-(1-(3,3,3-trifluoro-2-hydroxy-2-(pyridin-2-yl)propanoyl)piperidin-4-yl)butoxy)nicotinamide] | 28% | 1330 nM | 29 nM | 73% | – | – | – |
| COc1cccc([C@@](O)(C(=O)N2CCC(C[C@H]3C[C@@H](Oc4ccc(C(=O)N(C)C)c(Cl)c4)C3)CC2)C(F)F)c1 (single isomer, unassigned) [Example 37-8, 2-chloro-4-((1R,3s)-3-((1-((R or S)-3,3-difluoro-2-hydroxy-2-(3-methoxyphenyl)propanoyl)piperidin-4-yl)methyl)cyclobutoxy)-N,N-dimethylbenzamide] | – | – | 354 nM | 51% | No IP | 0% | – |
| Cc1cc(OC2CC(CC3CCN(C(=O)C(O)(c4cccc(OC5CC5)c4)C(F)(F)F)CC3)C2)ccc1C(=O)N(C)C (single isomer, unassigned) [Example 37-12, (R or S)-4-(3-((1-(2-(3-cyclopropoxyphenyl)-3,3,3-trifluoro-2-hydroxypropanoyl)piperidin-4-yl)methyl)cyclobutoxy)-N,N,2-trimethylbenzamide] | – | – | 63 nM | 106% | No IP | 0% | – |
| CC(C)(C)OC(=O)NC1CN(C(=O)c2ccc(OCCCCC3CCN(C(=O)[C@](O)(c4ccccc4)C(F)(F)F)CC3)cc2Cl)C1 (single isomer, unassigned) [Example 8-11, (R or S)-tert-butyl 1-(2-chloro-4-(4-(1-(3,3,3-trifluoro-2-hydroxy-2-phenylpropanoyl)piperidin-4-yl)butoxy)benzoyl) azetidin-3-ylcarbamate] | – | – | 18 nM | 56% | – | 32% | 520 nM |
| CN(C)C(=O)c1ccc(O[C@H]2C[C@@H](CC3CCN(C(=O)[C@](O)(c4cccc(C(F)(F)F)c4)C(F)(F)F)CC3)C2)cc1Cl (single isomer, unassigned) [Example 37-6, 2-chloro-N,N-dimethyl-4-((1R,3s)-3-((1-((R or S)-3,3,3-trifluoro-2-hydroxy-2-(3-(trifluoromethyl)phenyl)propanoyl)piperidin-4-yl)methyl)cyclobutoxy) benzamide] | – | – | 15 nM | 119% | – | 31% | 602 nM |
| CN(C)C(=O)c1ccc(O[C@H]2C[C@@H](CC3CCN(C(=O)[C@](O)(c4cccc(C5CC5)c4)C(F)(F)F)CC3)C2)cc1Cl (single isomer, unassigned) [Example 37-5, 2-chloro-4-((1R,3s)-3-((1-((R or S)-2-(3-cyclopropylphenyl)-3,3,3-trifluoro-2-hydroxypropanoyl)piperidin-4-yl)methyl)cyclobutoxy)-N,N-dimethylbenzamide] | – | – | 6 nM | 134% | – | 30% | 401 nM |
| CN(C)C(=O)c1ccc(OCCC2CC23CCN(C(=O)C(C)(C)c2cccc(Br)n2)CC3)cc1Cl (single isomer, unassigned) [Example 12-20, (S or R)-4-(2-(6-(2-(6-bromopyridin-2-yl)-2-methylpropanoyl)-6-azaspiro[2.5]octan-1-yl)ethoxy)-2-chloro-N,N-dimethylbenzamide] | – | – | 47 nM | 32% | No IP | 0% | – |
| COc1cccc([C@](O)(C(=O)N2CCC3(CC2)C[C@@H]3CCCOc2ccc(C(=O)N(C)C)c(Cl)c2)C(F)(F)F)c1 (single isomer, unassigned) [Example 14-7, 2-chloro-N,N-dimethyl-4-(3-((S or R)-6-((S or R)-3,3,3-trifluoro-2-hydroxy-2-(3-methoxyphenyl)propanoyl)-6-azaspiro[2.5]octan-1-yl)propoxyl)benzamide] | – | – | 9 nM | 100% | – | 46% | 186 nM |
| CCOC(=O)N1CCN(C(=O)c2ccc(OCCCCC3CCN(C(=O)C(O)(c4ccccc4)C(F)(F)F)CC3)nc2Cl)CC1 (stereo not drawn) [Example 3-18, ethyl 4-(2-chloro-6-(4-(1-(3,3,3-trifluoro-2-hydroxy-2-phenylpropanoyl)piperidin-4-yl)butoxy)nicotinoyl) piperazine-l-carboxylate] | – | – | 17 nM | 75% | – | 33% | 498 nM |
| CN(C)C(=O)c1ccc(OCCCCC2CCN(C(=O)C(O)(c3cccc(Cl)c3)C(F)(F)F)CC2)cc1Cl (single isomer, unassigned) [Example 3-2, (S or R)-2-chloro-4-(4-(1-(2-(3-chlorophenyl)-3,3,3-trifluoro-2-hydroxypropanoyl)piperidin-4-yl)butoxy)-N,N-dimethylbenzamide] | – | – | 6 nM | 79% | – | 37% | 128 nM |
| COc1cccc(C(O)(C(=O)N2CCC(CCCCOc3ccc(C(=O)N(C)C)c(Cl)c3)CC2)C(F)(F)F)c1 (single isomer, unassigned) [Example 3-13, (S or R)-2-chloro-N,N-dimethyl-4-(4-(1-(3,3,3-trifluoro-2-hydroxy-2-(3-methoxyphenyl)propanoyl)piperidin-4-yl)butoxy)benzamide] | – | – | 394 nM | 61% | No IP | 0% | – |
| COc1cccc([C@@](O)(C(=O)N2CCC(C[C@@H](C)CCOc3ccc(C(=O)N(C)C)c(Cl)c3)CC2)C(F)(F)F)c1 (single isomer, unassigned) [Example 27-1, 2-chloro-N,N-dimethyl-4-((R or S)-3-methyl-4-(1-((R or S)-3,3,3-trifluoro-2-hydroxy-2-(3-methoxyphenyl)propanoyl)piperidin-4-yl)butoxy)benzamide] | 23% | 74 nM | 5 nM | 70% | – | – | – |
| CN(C)C(=O)c1ccc(OCC[C@@H]2C[C@@H]2C2CCN(C(=O)OCc3ccccc3)CC2)nc1Cl (single isomer, unassigned) [Example 10-7, benzyl 4-((1R,2S or 1S,2R)-2-(2-(6-chloro-5-(dimethylcarbamoyl)pyridin-2-yloxy)ethyl)cyclopropyl) piperidine-1-carboxylate] | – | – | 49 nM | 104% | – | 41% | 861 nM |
| CCc1cccc(C(O)(C(=O)N2CCC(CCCCOc3ccc(C(=O)N(C)C)c(Cl)c3)CC2)C(F)(F)F)c1 (single isomer, unassigned) [Example 3-12, (R or S)-2-chloro-4-(4-(1-(2-(3-ethylphenyl)-3,3,3-trifluoro-2-hydroxypropanoyl)piperidin-4-yl)butoxy)-N,N-dimethylbenzamide] | – | – | 16 nM | 76% | No IP | 15% | – |
| CN(C(=O)c1ccc(OCCCCC2CCN(C(=O)[C@](O)(c3ccccc3)C(F)(F)F)CC2)cc1Cl)C1COC1 (single isomer, unassigned) [Example 8-13, (R or S)-2-chloro-N-methyl-N-(oxetan-3-yl)-4-(4-(1-(3,3,3-trifluoro-2-hydroxy-2-phenylpropanoyl)piperidin-4-yl)butoxy) benzamide] | – | – | 22 nM | 73% | – | 29% | 412 nM |
| CN(C)C(=O)c1ccc(OCC[C@@H]2CC23CCN(C(=O)C2(c4ccccc4Br)CCC2)CC3)cc1Cl (single isomer, unassigned) [Example 12-17, (S or R)-4-(2-(6-(1-(2-bromophenyl)cyclobutanecarbonyl)-6-azaspiro[2.5]octan-1-yl)ethoxy)-2-chloro-N,N-dimethylbenzamide] | – | – | 9 nM | 79% | – | 35% | 166 nM |
| CN(C)C(=O)c1ccc(OCCCC2CCN(C(=O)c3c(F)cccc3F)CC2)nc1Cl [Example 3-14, 2-chloro-6-(3-(1-(2,6-difluorobenzoyl)piperidin-4-yl)propoxy)-N,N-dimethylnicotinamide] | – | – | 160 nM | 77% | No IP | 46% | – |
| C[C@@H](CCC1CCN(C(=O)[C@](O)(c2cc(F)cc(F)c2)C(F)(F)F)CC1)COc1ccc(C(=O)N(C)C)c(Cl)c1 (single isomer, unassigned) [Example 23-3, 2-chloro-4-((S or R)-4-(1-((R or S)-2-(3,5-difluorophenyl)-3,3,3-trifluoro-2-hydroxypropanoyl)piperidin-4-yl)-2-methylbutoxy)-N,N-dimethylbenzamide] | – | – | 12 nM | 89% | – | 42% | 150 nM |
